From US20060233870A1, “Compositions and methods for drug delivery” (Noven Pharmaceuticals, Inc., priority 1999, published 2006)
Values belong to the molecule of their own block, whether it stands above or below them.

Columns and labels:
[1] = solubility of the drug in the acrylic-based polymer dermal composition

clonidine flux (increasing amount of hydroxy functional acrylic (DT 87-2287) versus carboxy functional DT 87-2852, FIG. 3, Examples 9-11 and Comparative Example 3 plotted): increases the flux of the clonidine
solubility of clonidine in the acrylic ([1]; in hydroxy functional acrylic compared with carboxy functional acrylic): lower solubility
Structure (SMILES): Clc1cccc(Cl)c1N=C1NCCN1 [clonidine]

Structure (SMILES): O=C(CCCN1CCC(O)(c2ccc(Cl)cc2)CC1)c1ccc(F)cc1 [haloperidol]
cumulative haloperidol flux (increasing amount of non-functional acrylic (HRJ 4483) versus carboxy functional DT 87-2196, FIG. 1, Examples 2 and 4 and Comparative Example 1 plotted): flux of the haloperidol across the skin increases
solubility of the haloperidol in the dermal composition ([1]; increasing amount of non-functional acrylic in the dermal composition): reduces the solubility of the haloperidol

Structure (SMILES): CN1CCCC1c1cccnc1 (centres unmarked) [nicotine]
nicotine flux (increasing amount of non-functional acrylic (HRJ 4483) versus carboxy functional DT 87-2852, FIG. 2, Examples 5-7 and Comparative Example 2 plotted): increasing flux
